Data from PubChem BioAssay (NCI).
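Compound exposure: 48 hours, 5 concentrations, 96-well plates. GI50 = concentration required for 50% inhibition of growth. TGI is the concentration that stops growth completely.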

Assays:
Assay in all cases: inhibition of tumour cell growth, NCI panel, 48 h
A549 NSCLC = test system: A549 NSCLC
CAKI-1 renal = test system: CAKI-1 renal
CCRF-CEM leukemia = test system: CCRF-CEM leukemia
HOP-62 NSCLC = test system: HOP-62 NSCLC
NCI-H226 lung = test system: NCI-H226 lung
NCI-H460 lung = test system: NCI-H460 lung
SK-MEL-28 melanoma = test system: SK-MEL-28 melanoma
SW-620 colon = test system: SW-620 colon
UACC-62 melanoma = test system: UACC-62 melanoma
RXF 393 renal = test system: RXF 393 renal

Structure (SMILES): COCN1COCN(C)C1=O
- TGI (A549 NSCLC): > 100 µM
- TGI (CAKI-1 renal): > 100 µM
- TGI (CCRF-CEM leukemia): > 100 µM
- TGI (HOP-62 NSCLC): > 100 µM
- TGI (NCI-H226 lung): > 100 µM
- TGI (NCI-H460 lung): > 100 µM
- TGI (SK-MEL-28 melanoma): > 100 µM
- TGI (SW-620 colon): > 100 µM
- TGI (UACC-62 melanoma): > 100 µM

Structure (SMILES): COc1ccccc1/C=C1\C(=O)N(C(=O)Cc2ccccc2)N=C1C
- TGI (A549 NSCLC): > 100 µM
- TGI (CAKI-1 renal): > 100 µM
- TGI (CCRF-CEM leukemia): > 100 µM
- TGI (HOP-62 NSCLC): > 100 µM
- TGI (NCI-H226 lung): > 100 µM
- TGI (NCI-H460 lung): > 100 µM
- TGI (SK-MEL-28 melanoma): > 100 µM
- TGI (SW-620 colon): > 100 µM

Structure (SMILES): C=CCCC(O)c1cc(C)c(O)c(C)c1 (stereo unspecified)
- TGI (A549 NSCLC): > 100 µM
- TGI (CCRF-CEM leukemia): > 100 µM
- TGI (HOP-62 NSCLC): > 100 µM
- TGI (NCI-H226 lung): > 100 µM
- TGI (NCI-H460 lung): > 100 µM
- TGI (RXF 393 renal): > 100 µM
- TGI (SK-MEL-28 melanoma): > 100 µM
- TGI (SW-620 colon): > 100 µM
- TGI (UACC-62 melanoma): > 100 µM

Structure (SMILES): Cn1c(=O)nc2n(-c3ccc(Br)cc3)c3ccccc3nc-2c1=O
- TGI (A549 NSCLC): 15.1 µM
- TGI (CAKI-1 renal): 33 µM
- TGI (CCRF-CEM leukemia): 19.9 µM
- TGI (HOP-62 NSCLC): 64.8 µM
- TGI (NCI-H226 lung): 28.5 µM
- TGI (NCI-H460 lung): 11.9 µM
- TGI (RXF 393 renal): 29 µM
- TGI (SW-620 colon): 6.57 µM
- TGI (UACC-62 melanoma): 3.01 µM

Structure (SMILES): COC1CCCc2c(OC(C)=O)ccc(OC(C)=O)c21 (stereo unspecified)
- TGI (A549 NSCLC): > 100 µM
- TGI (CAKI-1 renal): > 100 µM
- TGI (HOP-62 NSCLC): > 100 µM
- TGI (NCI-H226 lung): > 100 µM
- TGI (RXF 393 renal): > 100 µM
- TGI (SK-MEL-28 melanoma): > 100 µM
- TGI (SW-620 colon): > 100 µM
- TGI (UACC-62 melanoma): > 100 µM

Structure (SMILES): O=c1[nH]c2nc3ccccc3c(=O)n2nc1Cc1ccccc1
- TGI (A549 NSCLC): > 100 µM
- TGI (CAKI-1 renal): > 100 µM
- TGI (CCRF-CEM leukemia): > 100 µM
- TGI (HOP-62 NSCLC): > 100 µM
- TGI (NCI-H226 lung): > 100 µM
- TGI (NCI-H460 lung): > 100 µM
- TGI (SK-MEL-28 melanoma): > 100 µM
- TGI (SW-620 colon): > 100 µM
- TGI (UACC-62 melanoma): > 100 µM

Structure (SMILES): N#CN1CC[C@@H]2CC3(CCC2C1)OCCO3 (stereo partly specified)
- TGI (A549 NSCLC): > 100 µM
- TGI (CAKI-1 renal): > 100 µM
- TGI (CCRF-CEM leukemia): > 100 µM
- TGI (HOP-62 NSCLC): > 100 µM
- TGI (NCI-H226 lung): > 100 µM
- TGI (NCI-H460 lung): > 100 µM
- TGI (RXF 393 renal): > 100 µM
- TGI (SW-620 colon): > 100 µM
- TGI (UACC-62 melanoma): > 100 µM

Structure (SMILES): Nc1n[n+]([O-])c2ccc(Cl)cc2[n+]1[O-]
- TGI (A549 NSCLC): > 100 µM
- TGI (CAKI-1 renal): 91.2 µM
- TGI (CCRF-CEM leukemia): > 100 µM
- TGI (HOP-62 NSCLC): 79.7 µM
- TGI (NCI-H226 lung): 72.9 µM
- TGI (RXF 393 renal): 54.1 µM
- TGI (SK-MEL-28 melanoma): 67.7 µM
- TGI (SW-620 colon): 61.2 µM

Structure (SMILES): CN(C)Cc1ccc(NC(=O)c2cncc(C#Cc3cnc(N)c4ncccc34)c2)cc1C(F)(F)F
- GI50 (A549 NSCLC): 1670 nM
- TGI (A549 NSCLC): 3.41 µM
- GI50 (CAKI-1 renal): 3.48 µM
- TGI (CAKI-1 renal): 11.5 µM
- GI50 (CCRF-CEM leukemia): 1340 nM
- TGI (CCRF-CEM leukemia): 3.57 µM
- GI50 (HOP-62 NSCLC): 1570 nM
- TGI (HOP-62 NSCLC): 3.48 µM
- GI50 (NCI-H460 lung): 1670 nM
- TGI (NCI-H460 lung): 3.12 µM
- GI50 (RXF 393 renal): 1310 nM
- TGI (RXF 393 renal): 2.88 µM
- GI50 (SK-MEL-28 melanoma): 161 nM
- TGI (SK-MEL-28 melanoma): 1.43 µM
- GI50 (SW-620 colon): 1500 nM
- TGI (SW-620 colon): 2.98 µM
- GI50 (UACC-62 melanoma): 1190 nM
- TGI (UACC-62 melanoma): 2.53 µM

Structure (SMILES): Cc1nc(-n2nc(-c3ccccc3)cc2-c2ccccc2)sc1C(=O)CC(=O)C(=O)Nc1ccc(Cl)c(Cl)c1
- TGI (A549 NSCLC): > 100 µM
- TGI (CAKI-1 renal): > 100 µM
- TGI (CCRF-CEM leukemia): > 100 µM
- TGI (HOP-62 NSCLC): > 100 µM
- TGI (NCI-H226 lung): > 100 µM
- TGI (NCI-H460 lung): > 100 µM
- TGI (RXF 393 renal): > 100 µM
- TGI (SW-620 colon): > 100 µM
- TGI (UACC-62 melanoma): > 100 µM
